# According to the supplement of paper PMC11424490:
# How the values were obtained:
# NCI-H2122 [1] = assay: relative IC50 of cell viability (CellTiter-Glo); higher = less potent
# Protocol: (§1)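 CellTiter-Glo proliferation assay in KRAS G12C mutant NCI-H2122 (72 h), SW837 (144 h) and NCI-H358 cells in 384-well plates. Monotherapy dose response was fitted with a four-parameter curve after normalisation to DMSO controls (% of control, PoC). IC50 is the relative IC50, averaged over replicates. Bottom is the fitted lower plateau in %PoC; Max.Conc. is the top dose tested.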
# SW837 [2] = assay: as above
# Protocol: as §1
# NCI-H2122 [3] = assay: fitted bottom plateau of viability curve, % of DMSO control; higher = less maximal inhibition; extreme values may be limits of the assay
# How it was run: (§2)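 NCI-H2122 (800 cells/well), SW837 and NCI-H358 (500 cells/well) were seeded in 60 µl in 384-well plates. After 24 h, single compounds were dispensed acoustically in dose series and incubated 72 h (NCI-H2122, NCI-H358) or 144 h (SW837). Viability was read by CellTiter-Glo luminescence (15 min shaking, EnVision reader) and normalised to DMSO controls (percent of control). Relative IC50 (averaged over replicates) and the lower plateau come from a four-parameter nonlinear fit.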
# SW837 [4] = assay: as above
# How it was run: as §2
Compound,relative IC50 of cell viability (NCI-H2122 [1]),relative IC50 of cell viability (SW837 [2]),fitted bottom plateau of viability curve (NCI-H2122 [3]),fitted bottom plateau of viability curve (SW837 [4])
CC(=O)[C@]1(O)Cc2c(O)c3c(c(O)c2[C@@H](O[C@H]2C[C@H](N)[C@H](O)[C@H](C)O2)C1)C(=O)c1ccccc1C3=O [Idarubicin] (top concentration tested 100.01 nM),9.8 nM,15.3 nM,39.7%,38.7%
Cc1cn(CCN2CCN(c3ccccc3-c3cc(C#N)cc(C(=O)NCCCN4CCCC4)c3)CC2)c2ccccc12 [LLY-507] (top concentration tested 9999.9 nM),2850 nM,5600 nM,24%,0%
COc1cc(Nc2ncc3c(n2)-c2ccc(Cl)cc2C(c2c(F)cccc2OC)=NC3)ccc1C(=O)O [MLN8237] (top concentration tested 999.95 nM),75.9 nM,943 nM,21.5%,13.6%
CN(Cc1cnc2nc(N)nc(N)c2n1)c1ccc(C(=O)N[C@@H](CCC(=O)O)C(=O)O)cc1 [Methotrexate] (top concentration tested 10000 nM),7.98 nM,57 nM,37.4%,31.9%
CO[C@@]12[C@H](COC(N)=O)C3=C(C(=O)C(C)=C(N)C3=O)N1C[C@@H]1N[C@@H]12 [Mitomycin C] (top concentration tested 10000 nM),460 nM,240 nM,2.51%,0.69%
Cn1c(=O)n(-c2ccc(C(C)(C)C#N)cc2)c2c3cc(-c4cnc5ccccc5c4)ccc3ncc21 [NVP-BEZ235] (top concentration tested 999.9 nM),58.5 nM,153 nM,9.96%,33.2%
COC(=O)c1ccc2c(c1)NC(=O)/C2=C(\Nc1ccc(N(C)C(=O)CN2CCN(C)CC2)cc1)c1ccccc1 [Nintedanib] (top concentration tested 10000 nM),5990 nM,2240 nM,50.6%,8.69%
O=C(O)C(=O)O.[NH-][C@@H]1CCCC[C@H]1[NH-].[Pt+2] [Oxaliplatin] (top concentration tested 50000 nM),9200 nM,5890 nM,31.5%,21%
CC(=O)O[C@H]1C(=O)[C@@]2(C)[C@H]([C@H](OC(=O)c3ccccc3)[C@]3(O)C[C@H](OC(=O)[C@H](O)[C@@H](NC(=O)c4ccccc4)c4ccccc4)C(C)=C1C3(C)C)[C@]1(OC(C)=O)CO[C@@H]1C[C@@H]2O [Paclitaxel] (top concentration tested 100.01 nM),3.22 nM,12.5 nM,4.65%,25.6%
Cc1[nH]c2ccccc2c1CCNCc1ccc(/C=C/C(=O)NO)cc1 [Panobinostat] (top concentration tested 99.878 nM),16.4 nM,20.9 nM,11.3%,0.651%

# Second part, led by results:
relative IC50 of cell viability (NCI-H2122 [1]),relative IC50 of cell viability (SW837 [2]),Compound,fitted bottom plateau of viability curve (NCI-H2122 [3]),fitted bottom plateau of viability curve (SW837 [4])
5.65 nM,76.4 nM,C/C=C1\NC(=O)[C@H]2CSSCC/C=C/[C@H](CC(=O)N[C@H](C(C)C)C(=O)N2)OC(=O)[C@H](C(C)C)NC1=O [Romidepsin] (top concentration tested 10000 nM),0.385%,0.0763%
5790 nM,6500 nM,CC(C)(C)c1ccc(S(=O)(=O)NCc2ccc(C(=O)Nc3cccnc3)cc2)cc1 [STF-31] (top concentration tested 10000 nM),12.7%,0%
21.7 nM,33.4 nM,CC(=O)Nc1cccc(-n2c(=O)n(C3CC3)c(=O)c3c(Nc4ccc(I)cc4F)n(C)c(=O)c(C)c32)c1 [Trametinib] (top concentration tested 1000 nM),3.01%,11.6%
278 nM,807 nM,CNCc1ccc(-c2cc(-c3nc(-c4ccc(S(=O)(=O)C(C)C)cc4)cnc3N)on2)cc1 [VE-822/VX-970] (top concentration tested 9999.9 nM),0.375%,2.47%
4.34 nM,80.2 nM,CC[C@]1(O)C[C@@H]2CN(CCc3c([nH]c4ccccc34)[C@@](C(=O)OC)(c3cc4c(cc3OC)N(C)[C@H]3[C@@](O)(C(=O)OC)[C@H](OC(C)=O)[C@]5(CC)C=CCN6CC[C@]43[C@@H]65)C2)C1 [Vinblastine] (top concentration tested 99.992 nM),4.54%,0%
9.06 nM,17.1 nM,CCC1=C[C@@H]2CN(C1)Cc1c([nH]c3ccccc13)[C@@](C(=O)OC)(c1cc3c(cc1OC)N(C)[C@H]1[C@@](O)(C(=O)OC)[C@H](OC(C)=O)[C@]4(CC)C=CCN5CC[C@]31[C@@H]54)C2 [Vinorelbine] (top concentration tested 100.01 nM),5.21%,42.9%
